Measured values published in the supplement of paper PMC11061612.

Tests used:
Experiment in all cases: combination Emax (second highest fraction inhibited in the dose matrix, 72 h); higher = more inhibition; extreme values may be limits of the assay
[1] = tested on: NCI-H2405 (Lung Adenocarcinoma)
Summary of the method: (§1)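 Cell lines grown in DMEM/F12 or RPMI with 10% FBS were plated in 1536-well plates and held 24 hours at 37°C, 5% CO2 before 72 hours of exposure to two-drug dose matrices, with DMSO typically at 0.2%. CellTiter-Glo 2.0 luminescence gave viability, which was converted to inhibition. Vehicle wells were set to 0 and blank wells to 1. Combination Emax is the second-highest inhibition in the matrix, and Bliss excess is the observed combination effect minus the expected EA + EB − EA·EB, where EA and EB are the single-agent effects.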

[2] = tested on: SCC-3 (B-Cell Non-Hodgkin's Lymphoma)
Summary of the method: as §1

A704 (Kidney Carcinoma) = tested on: A704 (Kidney Carcinoma)
Summary of the method: as §1

[3] = tested on: SCC-9 (Oral Cavity Carcinoma)
Summary of the method: as §1

[4] = tested on: OVISE (Ovarian Carcinoma)
Summary of the method: as §1

NB7 (Neuroblastoma) = tested on: NB7 (Neuroblastoma)
Summary of the method: as §1

[5] = tested on: KINGS-1 (Low Grade Glioma)
Summary of the method: as §1

BT-20 (Breast Carcinoma) = tested on: BT-20 (Breast Carcinoma)
Summary of the method: as §1

[6] = tested on: OCUB-M (Breast Carcinoma)
Summary of the method: as §1

[7] = tested on: BV-173 (Chronic Myelogenous Leukemia)
Summary of the method: as §1

EW-18 (Ewing's Sarcoma) = tested on: EW-18 (Ewing's Sarcoma)
Summary of the method: as §1

[8] = tested on: SNU-C1 (Colorectal Carcinoma)
Summary of the method: as §1

[9] = tested on: MFE-319 (Endometrial Carcinoma)
Summary of the method: as §1

RPMI-7951 (Melanoma) = tested on: RPMI-7951 (Melanoma)
Summary of the method: as §1

CN(C)CCCOc1ccc(-c2ccc3ncc4c(c3c2)n(C2CCOCC2)c(=O)n4C)cn1 [AZD0156] + C=CCn1c(=O)c2cnc(Nc3ccc(N4CCN(C)CC4)cc3)nc2n1-c1cccc(C(C)(C)O)n1 [AZD1775] (first compound max 1 µM, partner max 1 µM)
combination Emax [1]: 0.0974 | combination Emax [2]: 0.941 | combination Emax (A704 (Kidney Carcinoma)): 0.379 | combination Emax [3]: 0.168 | combination Emax [4]: 0.7 | combination Emax (NB7 (Neuroblastoma)): 0.6 | combination Emax [5]: 0.293 | combination Emax (BT-20 (Breast Carcinoma)): 0.476 | combination Emax [6]: 0.209 | combination Emax [7]: 0.995 | combination Emax (EW-18 (Ewing's Sarcoma)): 0.556 | combination Emax [8]: 0.295 | combination Emax [9]: 0.63 | combination Emax (RPMI-7951 (Melanoma)): 0.687

CC1(C)CCC(CN2CCN(c3ccc(C(=O)NS(=O)(=O)c4ccc(NCC5CCOCC5)c([N+](=O)[O-])c4)c(Oc4cnc5[nH]ccc5c4)c3)CC2)=C(c2ccc(Cl)cc2)C1 [Venetoclax] + CN(C)CCCOc1ccc(-c2ccc3ncc4c(c3c2)n(C2CCOCC2)c(=O)n4C)cn1 [AZD0156] (first compound max 1 µM, 7x7, partner max 1 µM)
combination Emax [1]: 0.14 | combination Emax [2]: 0.157 | combination Emax (A704 (Kidney Carcinoma)): 0.185 | combination Emax [3]: 0.174 | combination Emax [4]: 0.262 | combination Emax (NB7 (Neuroblastoma)): 0.18 | combination Emax [5]: 0.301 | combination Emax (BT-20 (Breast Carcinoma)): 0.132 | combination Emax [6]: 0.749 | combination Emax [7]: 0.833 | combination Emax (EW-18 (Ewing's Sarcoma)): 0.389 | combination Emax [8]: 0.163 | combination Emax [9]: 0.243 | combination Emax (RPMI-7951 (Melanoma)): 0.304

CN(CCO)CC[C@H](CSc1ccccc1)Nc1ccc(S(=O)(=O)NC(=O)c2ccc(N3CCC([C@@H](O)c4ccccc4-c4ccc(Cl)cc4)CC3)cc2)cc1S(=O)(=O)C(F)(F)F [AZD4320] + C=CCn1c(=O)c2cnc(Nc3ccc(N4CCN(C)CC4)cc3)nc2n1-c1cccc(C(C)(C)O)n1 [AZD1775] (first compound max 1 µM, partner max 1 µM)
combination Emax [1]: 0.193 | combination Emax [2]: 0.779 | combination Emax (A704 (Kidney Carcinoma)): 0.781 | combination Emax [3]: 0.281 | combination Emax [4]: 0.939 | combination Emax (NB7 (Neuroblastoma)): 0.689 | combination Emax [5]: 0.526 | combination Emax (BT-20 (Breast Carcinoma)): 0.787 | combination Emax [6]: 0.487 | combination Emax [7]: 0.958 | combination Emax (EW-18 (Ewing's Sarcoma)): 0.888 | combination Emax [8]: 0.613 | combination Emax [9]: 0.944 | combination Emax (RPMI-7951 (Melanoma)): 0.879

CC1(C)CCC(CN2CCN(c3ccc(C(=O)NS(=O)(=O)c4ccc(NCC5CCOCC5)c([N+](=O)[O-])c4)c(Oc4cnc5[nH]ccc5c4)c3)CC2)=C(c2ccc(Cl)cc2)C1 [Venetoclax] + CCN(CCO)CCCOc1ccc2c(Nc3cc(CC(=O)Nc4cccc(F)c4)[nH]n3)ncnc2c1 [AZD2811] (first compound max 1 µM, 7x7, partner max 1 µM)
combination Emax [1]: 0.167 | combination Emax [2]: 0.31 | combination Emax (A704 (Kidney Carcinoma)): 0.167 | combination Emax [3]: 0.25 | combination Emax [4]: 0.311 | combination Emax (NB7 (Neuroblastoma)): 0.259 | combination Emax [5]: 0.243 | combination Emax (BT-20 (Breast Carcinoma)): 0.294 | combination Emax [6]: 0.749 | combination Emax [7]: 0.958 | combination Emax (EW-18 (Ewing's Sarcoma)): 0.707 | combination Emax [8]: 0.266 | combination Emax [9]: 0.243 | combination Emax (RPMI-7951 (Melanoma)): 0.454

Cc1c2c(nn1C)CSCc1cc(n(C)n1)CSc1cc(c3ccccc3c1)OCCCc1c(C(=O)O)n(C)c3c-2c(Cl)ccc13 [AZD5991] + C=CCn1c(=O)c2cnc(Nc3ccc(N4CCN(C)CC4)cc3)nc2n1-c1cccc(C(C)(C)O)n1 [AZD1775] (first compound max 1 µM, partner max 1 µM)
combination Emax [1]: 0.262 | combination Emax [2]: 0.85 | combination Emax (A704 (Kidney Carcinoma)): 0.43 | combination Emax [3]: 0.331 | combination Emax [4]: 0.633 | combination Emax (NB7 (Neuroblastoma)): 0.869 | combination Emax [5]: 0.334 | combination Emax (BT-20 (Breast Carcinoma)): 0.809 | combination Emax [6]: 0.984 | combination Emax [7]: 0.942 | combination Emax (EW-18 (Ewing's Sarcoma)): 0.91 | combination Emax [8]: 0.395 | combination Emax [9]: 0.913 | combination Emax (RPMI-7951 (Melanoma)): 0.957

COc1cccc(OCCCN)c1-c1cc(Nc2cnc(C#N)cn2)n[nH]1 [Prexasertib] + O=C(c1cc(Cc2n[nH]c(=O)c3ccccc23)ccc1F)N1CCN(C(=O)C2CC2)CC1 [Olaparib] (first compound max 1 µM, 7x7, partner max 10 µM)
combination Emax [1]: 0.368 | combination Emax [2]: 1 | combination Emax (A704 (Kidney Carcinoma)): 0.421 | combination Emax [3]: 0.464 | combination Emax [4]: 0.689 | combination Emax (NB7 (Neuroblastoma)): 0.749 | combination Emax [5]: 0.405 | combination Emax (BT-20 (Breast Carcinoma)): 0.799 | combination Emax [6]: 0.701 | combination Emax [7]: 0.994 | combination Emax (EW-18 (Ewing's Sarcoma)): 0.764 | combination Emax [8]: 0.663 | combination Emax [9]: 0.811 | combination Emax (RPMI-7951 (Melanoma)): 0.974

Cn1cnc2c(F)c(Nc3ccc(Br)cc3Cl)c(C(=O)NOCCO)cc21 [Selumetinib] + CC(C)n1c(=O)n(C)c2cnc3cc(F)c(-c4ccc(OCCCN5CCCCC5)nc4)cc3c21 [AZD1390] (first compound max 10 µM, 7x7, partner max 0.3 µM)
combination Emax [1]: 0.364 | combination Emax [2]: 0.369 | combination Emax (A704 (Kidney Carcinoma)): 0.246 | combination Emax [3]: 0.379 | combination Emax [4]: 0.184 | combination Emax (NB7 (Neuroblastoma)): 0.0793 | combination Emax [5]: 0.232 | combination Emax (BT-20 (Breast Carcinoma)): 0.252 | combination Emax [6]: 0.0283 | combination Emax [7]: 0.621 | combination Emax (EW-18 (Ewing's Sarcoma)): 0.28 | combination Emax [8]: 0.635 | combination Emax [9]: 0.154 | combination Emax (RPMI-7951 (Melanoma)): 0.307

NC1(C(=O)N[C@@H](CCO)c2ccc(Cl)cc2)CCN(c2ncnc3[nH]ccc23)CC1 [Capivasertib] + CC(C)n1c(=O)n(C)c2cnc3cc(F)c(-c4ccc(OCCCN5CCCCC5)nc4)cc3c21 [AZD1390] (first compound max 10 µM, 7x7, partner max 0.3 µM)
combination Emax [1]: 0.274 | combination Emax [2]: 0.216 | combination Emax (A704 (Kidney Carcinoma)): 0.314 | combination Emax [3]: 0.26 | combination Emax [4]: 0.387 | combination Emax (NB7 (Neuroblastoma)): 0.736 | combination Emax [5]: 0.374 | combination Emax (BT-20 (Breast Carcinoma)): 0.733 | combination Emax [6]: 1 | combination Emax [7]: 0.51 | combination Emax (EW-18 (Ewing's Sarcoma)): 0.596 | combination Emax [8]: 0.528 | combination Emax [9]: 0.368 | combination Emax (RPMI-7951 (Melanoma)): 0.662
